The source of these data is publication PMC8147781, “Discovery of Pyrrolidine-2,3-diones as Novel Inhibitors of P. aeruginosa PBP3” (Antibiotics, 2021).

In brackets after ≈: the same amount, converted by molar mass. Bounds are passed on as bounds.

As a reminder, the MIC is the lowest concentration found to suppress growth. The term IC50 denotes the concentration that inhibits the measured activity by half.

Data set [1] concerns K. pneumoniae clinical isolate. Put plainly: MIC broth microdilution, K. pneumoniae. Conditions: Klebsiella pneumoniae; Table S3. Format: cell-based. As for the experimental part: (§1) MIC determination was performed via standard broth microdilution according to the Clinical & Laboratory Standards institute guidelines. Overnight colonies grown on BD-Columbia agar with 5% Sheep Blood (Becton Dickinson, Franklin Lakes, NJ, USA), were diluted in Mueller Hinton Broth 2 cation adjusted (MH+) medium (Thermo Fisher Scientific) to a concentration of 5 × 10^5 CFU/mL. Serial dilutions (1:2) of test compounds were incubated at 37 °C with 5 × 10^4 bacteria in a final volume of 100 μL. Sterile and growth controls in the presence of 1% DMSO and PMBN if the case, and the positive controls, aztreonam (AZT) and tigecycline (TIG) were included in the experiments (Table S4). The MICs were determined visually after 18 h at 37 °C and confirmed by the addition of 10% PrestoBlue (ThermoFisher Scientific) reagent according to the manufacture’s protocol. The fluorescence signal of PrestoBlue reagent was measured at Ex/Em: 550/595 nm after 30 min incubation at 37 °C using at a ClarioStar microplate reader (BMG Labtech). PrestoBlue reduction occurs in the presence of living cells and consequently turns red in colour and is highly fluorescent.

Data set [2] deals with A. baumannii ATCC15308. Nature of the data set: MIC broth microdilution, A. baumannii. As to conditions: 10 µg/mL PMBN. It counts as cell-based. As for the experimental part:
as §1
In general terms: Broth dilution looks for growth in wells or tubes with falling amounts of substance.

In data set [3] the test system is S. aureus 133. Nature of the data set: MIC broth microdilution, S. aureus. It counts as cell-based. As to conditions: Staphylococcus aureus, 133; Table S3. As for the experimental part: as §1
The subject of data set [4] is NRK-52E, epithelial kidney cell line. Put plainly: Cytotoxicity assay (PrestoBlue), NRK52E. Conditions: CC50, 72 h. As for the experimental part: (§2) We finally tested the cytotoxicity of the compounds against four eukaryotic cell lines (Table 2 and Table S5), NRK-52E, an epithelial kidney cell line of Rattus norvegicus; Hep G2, an human epithelial liver cell line; and two suspension cell lines: CCRF-CEM, a T lymphoblast; and H9, a cutaneous T lymphocyte cell line.
(§3) Cell lines stored at −120 °C were thawed to 37 °C and resuspended in 10 mL of medium pre-warmed to 37 °C. Cells were pelleted at 300× g for 10 min, and then resuspended in fresh medium, seeded in a T-75 culture flask, and placed in a CO2 incubator (37 °C with 5% CO2 tension). Once the cells reached approximately 70–80% confluency, they were then passaged regularly. The adherent cell lines NRK52E, HepG2 and Huh 7 were washed once with 10 mL DPBS and detached with Trypsin-EDTA for 5 to 7 min and resuspended in 15 mL of the appropriate medium. The suspension cell line CCRF-CEM were diluted and resuspended in fresh RPMI 1640 PAN medium. To calculate the cell density, the cell resuspensions were diluted 1:6 with DPBS. Equal volumes of cell suspension and Trypan Blue were mixed and gently loaded into a haemocytometer (INCYTO, 31056 Republic of Korea). In each experiment, cell concentrations were adjusted to reach a concentration of 2.5 × 10^3 cell/well for NRK52E, 5 × 10^3 cell/well for HepG2, 6.2 × 10^4 cell/well for CCRF-CEM and 3 × 10^3 for H9. The cells were incubated with decreasing concentration of compounds (1 µL in 96% DMSO) for 72 h at 37 °C with 5% CO2 tension. Cycloheximide, a cytotoxic compound that interferes with the translocation step in eukaryotic protein synthesis was used as a control for the experiments. The assay was carried out in flat-bottom, transparent 96-well plates. Cell viability was determined using the PrestoBlue reagent (Thermo Fisher Scientific, Waltham, MA, USA) according to the manufacture’s protocol. First, 10× PrestoBlue was added to each well to obtain a 1× solution, and incubated at 37 °C for 45 min. Then, fluorescence was measured at Ex/Em: 550/595 nm using a ClarioStar microplate reader (BMG Labtech). Cytotoxicity was determined as the percentage of the difference in absorbance of the untreated sample to the treated sample. CC50 was calculated using the values obtained in each concentration using the sigmoidal dose-response by Prism v.8. The media used in each cell line is detailed in Table S6.

In data set [5] the test system is Hep G2, epithelial liver cell line. Put plainly: Cytotoxicity assay (PrestoBlue), HepG2. As to conditions: CC50, 72 h. As for the experimental part:
as §2, §3

Data set [6] concerns T-lymphoblast CCRF-CEM cell line. Nature of the data set: Cytotoxicity assay (PrestoBlue), CCRF-CEM. As to conditions: for Cytotoxicity CCRF-CEM: CC50, 72 h. As for the experimental part: as §2, §3
Data set [7] deals with E. coli Neumann. Put plainly: MIC broth microdilution, E. coli. It counts as cell-based. As to conditions: Escherichia coli; Table S3; read-out: MIC (µM) E. coli Neumann. As for the experimental part:
as §1

Data set [8] addresses T1, PBP3 of P. aeruginosa (PaPBP3) (Pseudomonas aeruginosa, UniProt G3XD46).
T1 construct: P. aeruginosa PBP3 (amino acids 40 to 563); His-tag; made in house; host or cells: E. coli BL21 (DE3) Rosetta, plasmid pET41_PBP-3
Put plainly: S2dfluo fluorescence transpeptidase assay. Conditions: 300 nM PaPBP3, 30 min preincubation, 37 °C; for IC50: read-out: IC50 Determination with PaPBP3, S2dfluo Assay. Format: biochemical. As for the experimental part:
The assays were carried out in the presence of 5% DMSO and 0.01% Triton X100 to avoid the formation of colloidal structures and adsorption of protein and/or compounds to surfaces. The Z’-factor determined for the assay was 0.73 ± 0.28, indicating the suitability and robustness of the assay for high throughput screening (HTS) (Figure 1B,C).
The activity of soluble ^PaPBP3 (300 nM) was measured in the presence of 0.8 mM S2d, 1 mM D-alanine and 0.5 mM mBBr for 25 min by monitoring the increase in the fluorescence intensity of mBBr at Ex/Em: 394/490 nm using an Infinite M1000 microplate reader (Tecan, Männedorf, Switzerland). To test the effect of inhibitors, 100 µM or 0.8 to 100 µM of compounds diluted in 96% DMSO were incubated for 30 min and 450 rpm with 300 nM soluble PBP3. The incubation period was set to improve the binding of non-covalent inhibitors and 0.01% Triton X100 (Sigma-Aldrich, Taufkirchen, Germany) was added to prevent aggregation of compounds. The enzyme reaction was started by adding a substrate mix of 0.8 mM S2d and […]. The enzyme, compound and substrate mix were mixed 1:1, pipetted with a Liquidator 96 (Melter Toledo, Gießen, Germany) and the fluorescence intensity was directly monitored with an Infinite M1000 microplate reader (Tecan) at Ex/Em: 394/490 nm. The assay was performed in black, flat-bottom 96-well microplates (Greiner Bio-One, Kremsmünster, Austria) at 37 °C in Sorensen Phosphate Buffer (57 mM Na2HPO4 and 10 mM KH2PO4, pH 7.5 + 0.01% Triton X-100). The velocity of the PBP3 reaction was calculated in the presence of each concentration of compound and the velocity values were used to estimate IC50 by sigmoidal nonlinear regression, using Prism v.9 software (San Diego, CA, USA) and the velocity of the reaction at each concentration.

T1 sequence (G3XD46 40-563): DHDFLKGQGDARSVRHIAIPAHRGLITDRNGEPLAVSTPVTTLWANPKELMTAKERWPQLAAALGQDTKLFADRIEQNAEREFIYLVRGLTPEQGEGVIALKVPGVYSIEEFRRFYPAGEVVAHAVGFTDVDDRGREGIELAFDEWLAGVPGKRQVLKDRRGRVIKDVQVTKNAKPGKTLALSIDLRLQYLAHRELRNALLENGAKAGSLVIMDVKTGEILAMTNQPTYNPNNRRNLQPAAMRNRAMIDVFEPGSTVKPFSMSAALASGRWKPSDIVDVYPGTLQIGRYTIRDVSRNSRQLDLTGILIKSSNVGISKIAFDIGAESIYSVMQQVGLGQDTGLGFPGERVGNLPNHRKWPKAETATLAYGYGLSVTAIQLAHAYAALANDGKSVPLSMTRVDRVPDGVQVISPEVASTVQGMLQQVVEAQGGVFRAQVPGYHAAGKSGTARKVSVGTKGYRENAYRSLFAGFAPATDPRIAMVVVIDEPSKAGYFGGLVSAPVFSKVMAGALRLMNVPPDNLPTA

Consider `O=C(C1=C(O)C(=O)N(Cc2cccc(F)c2)C1c1ccc(Cl)cc1)c1ccc(Br)cc1` (stereo not drawn) [Compound 1], for which the MIC in data set [1], in data set [3] and in data set [7] was more than 100 µM in each case. In data set [2], the “MIC (µM) A. baumanii ATCC15308” value is on record as more than 100 µM. The “Cytotoxicity effect (µM) Epithelial kidney NRK52E” value in data set [4] is recorded as more than 100 µM. Moreover, the “Cytotoxicity effect (µM) Epithelial liver HepG2” value in data set [5] is on record as more than 100 µM. For the same molecule, the “Cytotoxicity CCRF-CEM” value in data set [6] is recorded as more than 100 µM. In data set [8], the IC50 is 28 ± 9 µM.
`O=C1NC(c2ccc(Cl)cc2)C(C(=O)c2ccc(Br)cc2)=C1O` (stereo not drawn) [Compound 32, 4-(4-bromobenzoyl)-5-(4-chlorophenyl)-3-hydroxy-1,5-dihydropyrrol-2-one]: the MIC in data set [1], in data set [3] and in data set [7] was more than 100 µM each time. Also, the “MIC (µM) A. baumanii ATCC15308” value in data set [2] is more than 100 µM. In data set [4], the “Cytotoxicity effect (µM) Epithelial kidney NRK52E” value was determined as 98 ± 5 µM. The “Cytotoxicity effect (µM) Epithelial liver HepG2” value in data set [5] is more than 100 µM. Moreover, the “Cytotoxicity CCRF-CEM” value in data set [6] is 94 ± 6 µM. Besides, in data set [8], the “IC50 Determination with PaPBP3, S2dfluo Assay” value is given as “loss of the inhibitory effect”. For the same molecule, the IC50 in data set [8] is more than 100 µM.
Regarding `CCN1C(=O)C(O)=C(C(=O)c2ccc(Br)cc2)C1c1ccc(Cl)cc1` (stereo not drawn) [Compound 33], the MIC in data set [1], in data set [3] and in data set [7] was more than 100 µM in each case. Besides, in data set [2], the “MIC (µM) A. baumanii ATCC15308” value is reported as more than 100 µM. In data set [4], the “Cytotoxicity effect (µM) Epithelial kidney NRK52E” value was determined as 84 ± 5 µM. The “Cytotoxicity effect (µM) Epithelial liver HepG2” value in data set [5] is listed as more than 100 µM. The “Cytotoxicity CCRF-CEM” value in data set [6] was found to be 58 ± 6 µM. Besides, the “IC50 Determination with PaPBP3, S2dfluo Assay” value in data set [8] is given as “loss of the inhibitory effect”. Also, in data set [8], the IC50 is more than 100 µM.
As to `O=C(C1=C(O)C(=O)N(Cc2cc3ccccc3[nH]2)C1c1ccc(Cl)cc1)c1ccc(Br)cc1` (stereo not drawn) [Compound 34, 4-(4-bromobenzoyl)-5-(4-chlorophenyl)-3-hydroxy-1-(1H-indol-2-ylmethyl)-5H-pyrrol-2-one], the results for the minimum inhibitory concentration (MIC) in data set [1], in data set [3] and in data set [7] were more than 100 µM, 6.25 µM (≈ 3.26 µg/mL) and more than 100 µM, respectively. Also, the “MIC (µM) A. baumanii ATCC15308” value in data set [2] is reported as more than 100 µM. Further, in data set [4], the “Cytotoxicity effect (µM) Epithelial kidney NRK52E” value was more than 100 µM. The “Cytotoxicity effect (µM) Epithelial liver HepG2” value in data set [5] is recorded as more than 100 µM. In data set [6], the “Cytotoxicity CCRF-CEM” value was more than 100 µM. For the same molecule, the IC50 in data set [8] worked out at 14 ± 9 µM.
In the case of `O=C(C1=C(O)C(=O)N(Cc2cc3cc(Cl)ccc3[nH]2)C1c1ccc(Cl)cc1)c1ccc(Br)cc1` (stereo not drawn) [Compound 35], the MIC in data set [1] is more than 100 µM; in data set [3], 3.13 µM (≈ 1.74 µg/mL); in data set [7], more than 100 µM. Moreover, the “MIC (µM) A. baumanii ATCC15308” value in data set [2] is given as more than 100 µM. Moreover, in data set [4], the “Cytotoxicity effect (µM) Epithelial kidney NRK52E” value was 53 ± 5 µM. Further, in data set [5], the “Cytotoxicity effect (µM) Epithelial liver HepG2” value is reported as more than 100 µM. In data set [6], the “Cytotoxicity CCRF-CEM” value was more than 100 µM. For the same molecule, the half-maximal inhibitory concentration (IC50) in data set [8] was 3 ± 1 µM.
As to `O=C(C1=C(O)C(=O)N(Cc2cc3cnccc3[nH]2)C1c1ccc(Cl)cc1)c1ccc(Br)cc1` (stereo not drawn) [Compound 36], the MIC in data set [1], in data set [3] and in data set [7] was more than 100 µM throughout. The “MIC (µM) A. baumanii ATCC15308” value in data set [2] is more than 100 µM. Moreover, the “Cytotoxicity effect (µM) Epithelial kidney NRK52E” value in data set [4] turned out to be 58 ± 3 µM. Also, the “Cytotoxicity effect (µM) Epithelial liver HepG2” value in data set [5] amounted to 1 ± 2 µM. Also, the “cytotoxic potential at the tested cell lines” value in data set [6] (four cell lines: NRK-52E, Hep G2, CCRF-CEM, H9) was “high cytotoxic potential”. Also, the IC50 in data set [8] is more than 100 µM.
`CCNC1=C(C(=O)c2ccc(Br)cc2)C(c2ccc(Cl)cc2)N(Cc2cccc(F)c2)C1=O` (stereo not drawn) [Compound 43, 4-(4-bromobenzoyl)-5-(4-chlorophenyl)-3-(ethylamino)-1-[(3-fluorophenyl)methyl]-5H-pyrrol-2-one]: in data set [2], the “MIC (µM) A. baumanii ATCC15308” value was more than 100 µM. Also, the MIC in data set [3] and in data set [7] was more than 100 µM each time. Further, the “Cytotoxicity effect (µM) Epithelial kidney NRK52E” value in data set [4] is recorded as 73 ± 9.2 µM. In data set [5], the “Cytotoxicity effect (µM) Epithelial liver HepG2” value was more than 100 µM. In addition, the “Cytotoxicity CCRF-CEM” value in data set [6] is more than 100 µM. Further, in data set [8], the IC50 was more than 100 µM.
